From paper PMC4552634, “A New Set of Chemical Starting Points with Plasmodium falciparum Transmission-Blocking Potential for Antimalarial Drug Discovery” (PLoS ONE, 2015)

tested on: P. falciparum stage V gametocytes; assay: Gametocytocidal ATP bioluminescence assay (single point 5 μM and 1 μM, dose-response); type: cell-based, Plasmodium falciparum; settings: P. falciparum gametocytes, 5 μM single concentration, 48 h, decrease of ATP level (S1 Table)
Experimental: Purified stage IV-V gametocytes were obtained as previously described [10]. Single point ATP bioluminescence assay and dose–response of positive hits was determined in accordance with the previously published protocol [10].

SMILES	% Inhibition
CN(Cc1cccc(C#N)c1)C1CCN(c2cc(NC(=O)c3cccc(F)c3)ccn2)CC1 [TCMDC-134972]	21%
COc1ccc2nccc([C@@H](O)CN3CCC(NCc4nc5c(OCc6ccccc6)cccc5[nH]4)CC3)c2c1 [TCMDC-141083]	34%
Cc1cccc2nc(-c3cccc(-c4ccc(NC(=O)Cc5ccc[n+]([O-])c5)cc4)c3)[nH]c12 [TCMDC-136993]	-16%
O=C(Nc1ccc(OC2CCN(Cc3ccccc3)CC2)c(Cl)c1)c1ccc(F)cc1 [TCMDC-133967]	19%
CCOc1ccc(NC(=O)c2cccc(CN3CCCN(Cc4cccc(O)c4)CC3)c2)cc1 [TCMDC-135987]	-5%
CO/C(=C\C=C\c1cc2cc(Cl)c(Cl)cc2[nH]1)C(=O)NC1CC2CCCC(C1)N2C (stereo not shown) [TCMDC-139067]	19%
Clc1ccc(-c2nc3ccc(-c4ccc5nc(-c6ccc(Cl)cc6)[nH]c5c4)cc3[nH]2)cc1 [TCMDC-123460]	1.65%
Cc1cc(NC(=O)Nc2ccc3nc(C)oc3c2)c2cc(Cl)ccc2n1 [TCMDC-140076]	38%
COc1ccc(CN2CCCN(Cc3cccc(C(=O)Nc4ccc(C(C)(C)C)cc4)c3)CC2)cc1 [TCMDC-135986]	5.59%
CN(c1cc(NC(=O)c2cccs2)ccn1)C1CCN(Cc2cccc(C#N)c2)CC1 [TCMDC-134970]	40%
Cc1nc(C)c(CC(=O)Nc2cccc(-c3cccc(-c4nc5ccc(C(F)(F)F)cc5[nH]4)c3)c2)s1 [TCMDC-136995]	4.51%
COc1cc2ncnc(Nc3ccc(OCc4ccccc4)c(I)c3)c2cc1OC [TCMDC-131944]	-25%
OC(CN1CCN(c2cccc(Cl)c2)CC1)C(c1ccccc1)c1ccccc1 (stereo not shown) [TCMDC-123456]	0.238%
COc1cc2nc(C)nc(Nc3ccc(Cc4ccccc4)cc3)c2cc1OC [TCMDC-131941]	1.46%
N#Cc1c(N2CCN(c3ccc(F)cc3)CC2)nc(N)c2c(N)nc3c(c12)CC(=O)N3C1CC1 [TCMDC-124490]	44%
Ic1cc(Nc2ncnc3ccsc23)ccc1OCc1ccccc1 [TCMDC-131945]	8%
COc1ccc(NC2=C(c3ccccc3)C(=O)c3ccccc32)cn1 [TCMDC-125501]	37%
Cc1cc(NC(=O)c2cccs2)ccc1OC1CCN(Cc2ccccc2)C1 (stereo not shown) [TCMDC-133968]	-2.76%
COc1cc(Cc2cnc(N)nc2N)cc(OCCCC#N)c1OC [TCMDC-138040]	-4.21%
Cc1cccc2nc(-c3cccc(-c4cccc(NC(=O)Cc5ccc[n+]([O-])c5)c4)c3)[nH]c12 [TCMDC-136992]	25%

SMILES	% Inhibition
CC(=O)Nc1ccc(CN2CCC(N(C)c3cc(NC(=O)c4cccs4)ccn3)CC2)cc1 [TCMDC-134971]	-7%
Cc1nc(C)c(CC(=O)Nc2ccc(-c3cccc(-c4nc5ccc(C(F)(F)F)cc5[nH]4)c3)cc2)s1 [TCMDC-136996]	-50%
CN(Cc1cccc(C#N)c1)C1CCN(c2cc(NC(=O)c3ccc(F)cc3)ccn2)CC1 [TCMDC-134974]	-6%
Cc1cc(NC(=O)c2ccco2)ccc1OC1CCN(Cc2ccccc2)CC1 [TCMDC-133965]	12%
Nc1nc(N)c2c(Sc3ccccc3)cccc2n1 [TCMDC-131943]	9%
Cc1cccc(CN2CCC(Oc3ccc(NC(=O)c4cccs4)cc3Cl)CC2)n1 [TCMDC-133964]	24%
CN(CC(=O)Nc1ccc(F)c(F)c1F)c1ncnc2sc(-c3ccccc3)cc12 [TCMDC-124491]	23%
C=CCOc1cc(Cc2cnc(N)nc2N)cc(OC)c1OC [TCMDC-138042]	-4%
CC(=O)c1c(C)[nH]c(C(=O)Nc2ccc(-c3nc4ccc(C)cc4s3)cc2)c1C [TCMDC-124493]	55%
N=C(N)c1ccc(-c2cc3ccc(C(=N)N)cc3[nH]2)cc1 [TCMDC-123458]	53%
COc1ccc(Cl)cc1NC(=O)Nc1cc(C)nc2ccccc12 [TCMDC-125497]	-50%
Nc1nc(N)c2c(ccc3ccccc32)n1 [TCMDC-131942]	19%
Nc1ccnc2ccc(NC(=O)CCCCCc3ccccc3)cc12 [TCMDC-139070]	2%
CCCCCCNC(=O)C1Cc2c([nH]c3ccccc23)C2(CCN(CCc3ccccc3)CC2)N1 (stereo not shown) [TCMDC-141085]	-58%
O=C1C(c2ccccc2)=C(Nc2cccc(OC(F)(F)C(F)F)c2)c2ccccc21 [TCMDC-125498]	66%
COc1cc(C(=O)NCCCN2CCN(c3cc(Cl)ccc3OC)CC2)ccc1-c1nc2cc(Cl)c(Cl)cc2[nH]1 [TCMDC-140079]	4.42%
Clc1ccc2c(NCCc3ccccn3)ccnc2c1 [TCMDC-123461]	8%
COc1ccc2nccc([C@@H](O)CN3CCC(NCc4ccc5scnc5c4)CC3)c2c1 [TCMDC-141081]	10%
O=C(NCCCN1CCN(c2cccc(Cl)c2)CC1)c1ccc(-c2nc3cc(Cl)c(Cl)cc3[nH]2)cc1 [TCMDC-140077]	1.64%
O=C(Nc1ccc(CN2CCC(c3c[nH]c4ccc(O)cc34)CC2)cc1)c1ccc(-c2ccccc2)cc1 [TCMDC-139068]	-139%

SMILES	% Inhibition
CC1CCN(C(=O)C(Cc2c[nH]c3ccccc23)NS(=O)(=O)c2ccc(Cl)cc2)CC1 (stereo not shown) [TCMDC-124494]	54%
COc1cc(C(=O)NC2CCN(Cc3ccccc3)CC2)ccc1-c1nc2cc(Cl)c(Cl)cc2[nH]1 [TCMDC-140078]	-56%
Cc1ccc(Oc2ncccc2C(=O)Nc2cccc3cccnc23)c(C)c1 [TCMDC-125499]	-13%
CNc1c2c(nc3ccc(NC(=O)CCCCCCc4ccccc4)cc13)CCCC2 [TCMDC-139066]	79%
C=CCc1cc(Cc2cnc(N)nc2N)cc(CCC)c1OC [TCMDC-138039]	23%
O=C(Nc1ccc(OC2CCN(Cc3ccccc3)CC2)c(Cl)c1)c1ccco1 [TCMDC-133966]	63%
O=C(/C=C/c1ccc(Cl)c(Cl)c1)N1CCC(CCN2CCC(c3c[nH]c4ccncc34)CC2)CC1 [TCMDC-140075]	91%
Cc1ccnc2nc(C(=O)Nc3cc(C(F)(F)F)ccc3N3CCCCC3)nn12 [TCMDC-124492]	-24%
COc1ccc2[nH]cc(C3CCN(Cc4ccc(NC(=O)c5ccc(-c6ccccc6)cc5)cc4)CC3)c2c1 [TCMDC-139069]	8%
CNC(=O)c1cc(NCCCNCc2ccc(Cl)c(C(F)(F)F)c2)nc2ccccc12 [TCMDC-141082]	73%
C1=C(c2c[nH]c3ccccc23)CCN(Cc2ccccc2)C1 [TCMDC-123457]	-71%
Cc1cccc(CN2CCCN(Cc3cccc(C(=O)Nc4ccc(C(C)(C)C)cc4)c3)CC2)c1 [TCMDC-135984]	-91%
CC(C)NC(C)(C)CN(Cc1ccc(-c2ccc(C(F)(F)F)cc2)cc1)C(=O)Cn1c(CCc2cccc(F)c2F)nc(=O)c2ccccc21 [TCMDC-141084]	72%
CC(CN1CCN(CC(c2ccc(F)cc2)N2CCN(C)CC2)CC1)C(=O)c1ccc(O)cc1.O=C(O)/C=C\C(=O)O (stereo not shown) [TCMDC-125496]	30%
CC(C)(C)c1ccc(NC(=O)c2cccc(CN3CCCN(Cc4ccc(F)cc4)CC3)c2)cc1 [TCMDC-135985]	-30%
Cc1cccc(C(=O)Nc2ccnc(N3CCC(N(C)Cc4cccc(C#N)c4)CC3)c2)c1 [TCMDC-134973]	-4.57%
COC(=O)CCCCOc1cc(Cc2cnc(N)nc2N)cc(OC)c1OC [TCMDC-138041]	2%
COc1cc(Cc2cnc(N)nc2N)c2c(c1OC)OC(C)(C)C=C2 [TCMDC-138038]	-2.79%
CCc1ccc(NC(=O)c2cccc(CN3CCCN(CC4CCCCC4)CC3)c2)cc1 [TCMDC-135988]	-39%

same assay, conditions: P. falciparum gametocytes; average; read-out: IC50 Pf Gametocytes average, IC50 (µM) average

SMILES	IC50
CCN(CC)/C(=N/C(=N)NCc1ccc(Cl)cc1Cl)NCCCCCCN/C(=N\C(=N)NCc1ccc(Cl)cc1Cl)N(CC)CC [TCMDC-131819]	0.3 µM

same assay, conditions: Plasmodium falciparum; P. falciparum gametocytes, 5 μM single concentration, 48 h, decrease of ATP level (S1 Table)

SMILES	inhibition at 5 µM
Cc1cccc2nc(-c3cccc(-c4cccc(CNCc5cnn(-c6ccccc6)n5)c4)c3)[nH]c12 [TCMDC-132963]	8%
COC(=O)c1cccc(CNCc2cccc(-c3cccc(-c4nc5ccccc5[nH]4)c3)c2)c1 [TCMDC-132961]	33%
COC(=O)c1cccc(CNCc2cccc(-c3cccc(-c4nc5cc(F)ccc5[nH]4)c3)c2)c1 [TCMDC-132960]	6%
Cc1nc(C)c(CC(=O)Nc2ccc(-c3ccc(-c4nc5cc(C(F)(F)F)ccc5[nH]4)s3)cc2)s1 [TCMDC-136994]	7%
FC(F)(F)c1ccc2[nH]c(-c3cccc(-c4ccc(CNCc5cnn(-c6ccccc6)n5)cc4)c3)nc2c1 [TCMDC-132964]	25%
c1ccc(-n2ncc(CNCc3ccc(-c4ccc(-c5nc6ccccc6[nH]5)s4)cc3)n2)cc1 [TCMDC-132962]	1%

same assay, conditions: Plasmodium falciparum; gametocytes, primary screen at 5 μM (S9 Table, CSA analogs)

SMILES	inhibition at 5 µM
CNCCNCc1ccc(-c2ccc(-c3nc4ccccc4[nH]3)s2)cc1 [TCMDC-132824]	82.1%
CN(C)CCNCc1ccc(-c2ccc(-c3nc4ccccc4[nH]3)s2)cc1 [TCMDC-132683]	58.1%
c1ccc2[nH]c(-c3ccc(-c4ccc(CNC5CC5)cc4)s3)nc2c1 [TCMDC-132675]	-17.6%
CC(C)CN(C)Cc1ccc(-c2ccc(-c3nc4ccccc4[nH]3)s2)cc1 [TCMDC-136786]	-17.4%

same assay, conditions: gametocytes, primary screen at 5 μM (S10 Table, MCSI analogs)

SMILES	%_Inh
Cc1cccc2nc(-c3ccc(-c4ccc(CN5CCN(C6CCN(C)CC6)CC5)cc4)s3)[nH]c12 [TCMDC-133866]	106.989%
Cc1cccc2nc(-c3ccc(-c4cccc(CNCc5ccc(CN)cc5)c4)s3)[nH]c12.O=C(O)C(F)(F)F [TCMDC-132812]	115.306%

tested on: P. falciparum asexual stages; assay: not given; settings: asexual stages; TCAMS data; read-out: IC50 asexual; cited from earlier work

SMILES	IC50
CCN(CC)/C(=N/C(=N)NCc1ccc(Cl)cc1Cl)NCCCCCCN/C(=N\C(=N)NCc1ccc(Cl)cc1Cl)N(CC)CC [TCMDC-131819]	218 nM
